Measured values reported in US6331555A, “Treatment of platelet derived growth factor related disorders such as cancers” (priority 1999, dated 2001).

System: C6 cells
Experiment: C6 SRB growth assay
Assay type: cell-based, rat
Conditions: Rattus norvegicus, C6; read-out: C6 SRB IC50

Cc1oncc1C(=O)NCc1ccc(C(F)(F)F)cc1 [Compound P23]
IC50: 18 µM
